From PubChem BioAssay (NCI)
Values after ≈ are worked out from the molar mass of the structure shown.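 Where inhibition never reached the appropriate level, the endpoint shown equals the highest concentration tested. Otherwise, values were interpolated linearly from a five-concentration, 48-hour dose response in 96-well plates. The concentration for 50% growth inhibition is given as GI50. TGI: total growth inhibition.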

Key:
Assay in all cases: NCI anticancer screen, dose series, 48 h
A498 renal = test system: A498 renal
A549 NSCLC = test system: A549 NSCLC
MALME-3M melanoma = test system: MALME-3M melanoma
MOLT-4 leukemia = test system: MOLT-4 leukemia
NCI-H460 lung = test system: NCI-H460 lung
OVCAR-4 ovarian = test system: OVCAR-4 ovarian
U251 CNS = test system: U251 CNS
HCT-116 colon = test system: HCT-116 colon
PC-3 prostate = test system: PC-3 prostate
COLO 205 colon = test system: COLO 205 colon

Structure (SMILES)	TGI (A498 renal)	TGI (A549 NSCLC)	TGI (MALME-3M melanoma) [µM]	TGI (MOLT-4 leukemia)	TGI (NCI-H460 lung)	TGI (OVCAR-4 ovarian)	TGI (U251 CNS)	TGI (HCT-116 colon)	TGI (PC-3 prostate)	TGI (COLO 205 colon)	GI50 (A498 renal)	GI50 (A549 NSCLC)	GI50 (COLO 205 colon)	GI50 (HCT-116 colon)	GI50 (MALME-3M melanoma) [µM]	GI50 (MOLT-4 leukemia)	GI50 (NCI-H460 lung)	GI50 (PC-3 prostate)	GI50 (U251 CNS)	GI50 (OVCAR-4 ovarian) [µg/mL]
Cc1ccc(S(=O)c2ccccc2[N+](=O)[O-])cc1 (stereo not drawn)	88.1 µM	> 100 µM	> 100	> 100 µM	> 100 µM	> 100 µM	> 100 µM	–	–	–	–	–	–	–	–	–	–	–	–	–
Cn1cc(C2NC(=O)c3ccccc3N2)c2ccccc21 (stereo not drawn)	> 100 µM	> 100 µM	> 29.7	–	> 42.8 µM	58.4 µM	6.27 µM	> 20.4 µM	0.408 µM	–	–	–	–	–	–	–	–	–	–	–
CN(C)CC1CC/C(=C\c2ccc(Cl)c(Cl)c2)C1=O (stereo not drawn)	73.6 µM	> 100 µM	> 100	19 µM	36.1 µM	58.2 µM	> 56.5 µM	> 61.7 µM	–	> 51.8 µM	–	–	–	–	–	–	–	–	–	–
NC1=C(O)c2cccc3cccc(c23)C1=O	> 100 µM	> 100 µM	> 100	> 100 µM	–	> 100 µM	> 100 µM	> 100 µM	–	> 100 µM	–	–	–	–	–	–	–	–	–	–
O=C(O)/C=C\C(=O)Nc1ccc2c(c1)-c1ccccc1C2	> 100 µM	> 100 µM	> 100	–	> 100 µM	> 100 µM	> 100 µM	> 100 µM	> 100 µM	> 100 µM	–	–	–	–	–	–	–	–	–	–
N#CC(C(=O)CCCC(=O)Nc1ccccc1[N+](=O)[O-])c1c(Cl)cccc1Cl (stereo not drawn)	> 100 µM	> 100 µM	> 100	> 100 µM	> 100 µM	> 100 µM	> 100 µM	> 100 µM	–	> 100 µM	–	–	–	–	–	–	–	–	–	–
CC(C)=CC[C@@H]1CC2(CC=C(C)C)C(=O)C(OC3(C(=O)c4ccccc4)C(=O)C4(CC=C(C)C)C[C@@H](CC=C(C)C)C(C)(C)C(CC=C(C)C)(C4=O)C3=O)(C(=O)c3ccccc3)C(=O)C(CC=C(C)C)(C2=O)C1(C)C (stereo partly drawn)	2.09 µM	6.05 µM	2.18	4.51 µM	3.07 µM	–	5.34 µM	2.3 µM	4.36 µM	3.22 µM	1.01 µM	1.73 µM	1.2 µM	0.953 µM	0.901	1.3 µM	1.27 µM	1.28 µM	1.64 µM	–
O=S1OC(c2ccccc2)(c2ccccc2)C(c2ccccc2)(c2ccccc2)O1	> 100 µM	> 100 µM	> 100	> 100 µM	> 100 µM	> 100 µM	> 100 µM	> 100 µM	–	> 100 µM	–	–	–	–	–	–	–	–	–	–
CC(C)(C)CC(C)(C)c1ccc(OCCO)cc1	14.2 µg/mL	> 75 µg/mL	–	> 75 µg/mL	16.4 µg/mL	21.5 µg/mL	19.6 µg/mL	14.5 µg/mL	16 µg/mL	15.4 µg/mL	0.0423 µg/mL	9.04 µg/mL	4.69 µg/mL	3.86 µg/mL	–	3.41 µg/mL	2.95 µg/mL	3.26 µg/mL	5.34 µg/mL	1.5 (≈ 5.98 µM)
COc1nc(NC2OC(COC(C)=O)C(OC(C)=O)C(OC(C)=O)C2OC(C)=O)c(N=CC=Nc2c(NC3OC(COC(C)=O)C(OC(C)=O)C(OC(C)=O)C3OC(C)=O)nc(OC)[nH]c2=O)c(=O)[nH]1 (stereo not drawn)	> 100 µM	> 100 µM	> 100	> 100 µM	–	> 100 µM	> 100 µM	> 100 µM	–	> 100 µM	–	–	–	–	–	–	–	–	–	–
